`CC1Oc2c(cc(CN3CCN(c4ccc(C#N)cc4)CC3)cc2C2CC2)NC1=O` (stereo unspecified) gave a melting point of 194 to 196 °C.
With `ON=Cc1ccc2c(c1)ncn2-c1cccc(-c2ccncn2)c1` the melting point was 220 to 221 °C.
For `COC(=O)C1=C(C)NC(c2cnc(Cl)s2)=NC1c1ccc(F)cc1Cl` (stereo unspecified), the melting point was > 230 °C.
In the case of `COc1ccc2c(C)c(CCO)c(=O)oc2c1`, the melting point was 141 to 142 °C.
Compound `Cc1c(Br)c2cnnc(OCc3ccc(F)cc3)c2n1Cc1ccccc1` has a melting point of 128 to 130 °C.
With `COCc1c(-c2ccncc2)[nH]c(-c2ccncc2)c1C(=O)OC` the melting point was 97 to 99 °C.
Work on `COc1cccc2c(CCCCN(C3CCC3)C3COc4c(F)ccc(C(N)=O)c4C3)coc12` (stereo unspecified) yielded a melting point of 122 to 127 °C.
For `CC(C#N)(Cn1nnc2cc(Cl)ccc21)NC(=O)c1ccc(OC(F)(F)F)cc1` (stereo unspecified), the melting point was 135 °C.
Compound `O=c1c2c(Cc3ccccc3Cl)n[nH]c2c2cccnc2n1-c1cccc(OC(F)(F)F)c1` has a melting point of 273 to 275 °C.
With `Clc1ccc(Sc2ncccn2)cc1` the melting point was 68 to 70 °C.
Compound `CCCc1c(C(=O)C(C)C)c2ccc(C(=O)O)cc2n1Cc1ccccc1F` has a melting point of 212 to 213 °C.
For `COc1ccc(Nc2ccnc(NCCO)c2)cc1`, the melting point was 164 to 165 °C.
`CN(CCn1ncc2ccccc2c1=O)CC(O)c1ccc(NS(C)(=O)=O)cc1` (stereo unspecified) gave a melting point of 134 to 137 °C.
For `CCNc1c(C#N)cnn1-c1c(F)c(F)c(C(F)(F)F)c(F)c1F`, the melting point was 168 °C.
In the case of `COC(=O)N(CC(=O)O)C(=O)c1c(Br)ccc2c(C(F)(F)F)c(OC)ccc12`, the melting point was 164 to 166 °C.
Compound `Cc1cc(-c2ccnc(C(N)=O)c2)n(-c2ccc(F)cc2)n1` has a melting point of 168 to 170 °C.
`Cc1cc(C)c(C2CC(=O)C=C(O)C2)c(C)c1` (stereo unspecified) showed a melting point of 165 °C.
Work on `CN(c1cncnc1)c1nc(N2CCOCC2)nc(-n2c(C(F)F)nc3ccccc32)n1` yielded a melting point of 202 to 205 °C.
Work on `Cc1cc(-c2nnc3cc(C(C)(C)C)c(OCc4ncn(C)n4)nn23)no1` yielded a melting point of 221 to 223 °C.
Work on `C#CC1(c2ccc(OC(F)F)c(OCC3CC3)c2)CCC(=O)CC1` yielded a melting point of 75 to 77 °C.
With `COc1ccnc(CSc2nc3cc(OC(F)(F)C(F)Cl)ccc3[nH]2)c1` (stereo unspecified) the melting point was 120 °C.
Work on `O=[PH](c1ccc2ccccc2c1)c1ccc2ccccc2c1` yielded a melting point of 98.3 °C.
Work on `CCc1cc([N+](=O)[O-])cc([N+](=O)[O-])c1Cl` yielded a melting point of 41 to 44 °C.
Compound `COc1ccc(CC(=O)c2c(OC)cc(OC)cc2OC)c(OC)c1` has a melting point of 109 to 111 °C.
For `CCOC(=O)C1=C(C)NC(C#N)=C(C(=O)OCC)C1c1cccc([N+](=O)[O-])c1` (stereo unspecified), the melting point was 174 to 177 °C.
`Nc1nc2ccccc2c2c1ncn2CCCCNC(=O)c1ccc(Oc2ccccc2)cc1` showed a melting point of 90.5 to 91.5 °C.
In the case of `CCCCN(Cc1ccc(-c2ccccc2-c2nnnn2C(c2ccccc2)(c2ccccc2)c2ccccc2)cc1)c1ncccc1C(=O)OCC`, the melting point was 90 to 94 °C.
Work on `COC(=O)C1CCCCN1S(N)(=O)=O` (stereo unspecified) yielded a melting point of 72 to 74 °C.
With `N#CCc1c(-c2ccccc2)[nH]c2nccnc12` the melting point was 247 to 248 °C.
Compound `O=C(O)C(=O)NC1N=C2C(=Cc3ccccc32)S1` (stereo unspecified) has a melting point of 229 to 231 °C.
With `Cc1nnc(C=Cc2ccccc2OCC(O)CNC2CC2)s1` (stereo unspecified) the melting point was 144 to 145 °C.
`COC(OC)[C@@H]1CCCN1C(=O)[C@@H]1CCCN1C(=O)C[C@H]1CCc2ccccc2C1` gave a melting point of 103 to 106 °C.
With `O=C(O)C(=O)CC(=O)c1cccn1Cc1ccc(Br)cc1` the melting point was 184 to 185 °C.
In the case of `CC(=O)Oc1ccc2c(c1)cc(C(=O)O)n2C(C)=O`, the melting point was 142 to 145 °C.
`CCOC(=O)COc1cccc(CN2C(=O)C3(COc4cc5c(cc43)CCO5)c3ccccc32)c1` (stereo unspecified) showed a melting point of 45 to 46 °C.
Compound `CN1CCN(c2ccc(Nc3nc(N)c(C(=O)c4c(F)cccc4F)s3)cc2)CC1` has a melting point of 168 to 170 °C.
`CCCc1n[nH]c(=O)n1C` showed a melting point of 77 °C.
Compound `CCOc1ncc(C(=O)O)c2ccccc12` has a melting point of 222 °C.
Compound `COc1ccc(C(=O)Nc2ccc(F)cc2)cc1Nc1cc(C)cc(C)c1` has a melting point of 199 to 200 °C.
In the case of `N=C(N)c1ccc(C(=O)NCCCC(=O)NCCC(=O)O)cc1`, the melting point was > 250 °C.
In the case of `CCOC(=O)c1c(CN(CC)CC)nc2cc(OC)c(OC)cc2c1-c1ccc(F)cc1`, the melting point was 102 to 103 °C.
Work on `CC(C)(C)C1(O)OC(=O)c2ccc(Cl)cc21` (stereo unspecified) yielded a melting point of 160 to 161 °C.
With `O=C(O)C(O)(CSc1ccccc1)C(F)(F)F` (stereo unspecified) the melting point was 83 to 84 °C.
With `CC(C)(C)NS(=O)(=O)c1c(CO)nsc1OCC(F)(F)F` the melting point was 113 to 116 °C.
With `Cc1ccccc1C(CCC(=O)O)Oc1cc(OCc2ccsc2)cc(F)c1C#N` (racemic) the melting point was 150 to 151 °C.
For `COc1ccccc1N(C)[C@@H](C)[C@H](O)c1ccccc1`, the melting point was 84 to 86 °C.
`CCNC(=O)C1OC(n2cnc3c(NCC(c4ccccc4)c4ccccc4)nc(NC4CCCC4)nc32)C(O)C1O` (stereo unspecified) showed a melting point of 122 to 128 °C.
In the case of `CCN1CCc2ccc(Nc3ncc(Cl)c(Nc4ccccc4C(=O)NC)n3)cc2CC1`, the melting point was 201 °C.
`CC(C)CCOC(=O)c1cccc(-c2cn(C)cc(-n3cccn3)c2=O)c1` gave a melting point of 115 to 118 °C.
For `Cc1cccc(C)c1NC(=O)C(C)N1CSCC1=O` (stereo unspecified), the melting point was 153 to 154 °C.
`CCOC(=O)[C@@H](C)OC(=O)c1ccc([N+](=O)[O-])cc1` gave a melting point of 42 to 43 °C.
`Cc1cc(C#N)cnc1C(=O)Nc1ccc(F)c([C@]2(C)CO[C@@](C)(C(F)(F)F)C(N)=N2)c1` showed a melting point of 101 to 102 °C.
With `CC(c1oc2ccccc2c(=O)c1-c1cccc(F)c1)n1nc(-c2ccc(C=O)o2)c2c(N)ncnc21` (stereo unspecified) the melting point was 215 to 217 °C.
With `OCC=Cc1ccsc1` the melting point was 58 to 60 °C.
`CC1(C)CC(N(CCCCCCN(c2nc(Cl)nc(Cl)n2)C2CC(C)(C)NC(C)(C)C2)c2nc(Cl)nc(Cl)n2)CC(C)(C)N1` showed a melting point of 161 to 163 °C.
In the case of `COc1cc(/C=C/C=C/C(=O)NCCN2CCC(c3c[nH]c4ccccc34)CC2)cc(OC)c1OC(C)=O`, the melting point was 169 to 172 °C.
In the case of `COc1ccc2c(c1)c(Cc1cc(=O)n(C)[nH]1)c(C)n2C(=O)c1ccc(Cl)cc1`, the melting point was 146 to 147 °C.
`COC(=O)CCC(=O)c1ccc(-c2cccc(F)c2)cc1` gave a melting point of 99 to 101 °C.
In the case of `Nc1cc(=O)n(Cc2cccc(Cl)c2)[nH]1`, the melting point was 132 °C.
Work on `COc1cccc(OC)c1-c1cc(C(=O)N[C@H](C(=O)O)C2CCCCC2)nn1-c1ccc(C(N)=O)c2ccccc12` yielded a melting point of 186 °C.
In the case of `Nc1ccc(Cl)c(N=C2NCCN2)c1`, the melting point was 154 to 155 °C.
For `CN(C)c1c(F)c(F)c(F)c2c1c(=O)c(C(=O)O)cn2C1CC1`, the melting point was 160 to 163 °C.
`NC(=O)Cc1cnc2c(NC(=O)c3c(Cl)cccc3Cl)cccc2c1` gave a melting point of 251 to 253 °C.
Compound `COC(=O)c1ccccc1S(=O)(=O)NC(=O)c1cc(C)n(C)n1` has a melting point of 176 to 177 °C.
With `CCCCS(=O)c1ncn(C(=O)N(CCC)CCC)n1` (stereo unspecified) the melting point was 39 to 40 °C.
`CCN(c1nc(C)cc(C(=O)c2nccs2)n1)c1ccc(C(C)C)cc1Br` showed a melting point of 97 to 98.5 °C.
In the case of `O=C(O)c1cc2ccoc2nc1C(=O)O`, the melting point was 189 to 192 °C.
`Clc1ccc(C2=C[C@H](CN3CC=C(c4ccccc4)CC3)CCC2)cc1` gave a melting point of 138 to 141 °C.
`COc1cccc(Cl)c1C1C(=O)NC(C)(C(C)C)C1=O` (stereo unspecified) gave a melting point of 172 to 174 °C.
Work on `Cc1cc(C2=C(C=O)C(C)(C)CC(C)(C)C2)ccc1F` yielded a melting point of 50.5 to 51.5 °C.
Work on `O=C1CSC2CN=C(c3ccccc3)c3cc(Cl)ccc3N12` (stereo unspecified) yielded a melting point of 228 to 230 °C.
With `O=c1c2c(nc3n1CCc1c-3[nH]c3cc(Cl)cc(Cl)c13)CCCC2` the melting point was 296 to 297 °C.
`O=C(CCO)Nc1cccc(S)c1` gave a melting point of 103 to 104 °C.
For `COC(=O)c1nscc1S(=O)(=O)Cl`, the melting point was 42 to 46 °C.
Compound `CCCCCCCCCOC(=O)c1cc(-c2csc(-c3ccc(OCC)c(OCC)c3)n2)ccc1O` has a melting point of 67 to 68 °C.
Compound `CC(=O)SCC(=O)NC(=O)Cc1ccccc1` has a melting point of 153 to 155 °C.
`CC(C)(C)OC(=O)N1CCC(c2nc3cc(-c4ccc(-n5cnnn5)cc4)ccc3o2)CC1` showed a melting point of 207 to 211 °C.
In the case of `O=C(NCCCn1ccnc1)c1ccccc1NS(=O)(=O)c1ccc(I)cc1`, the melting point was 162 to 166 °C.
Compound `CC(C)(C)C(=O)OCc1cc2c(OCC3CO3)cccc2[nH]1` (stereo unspecified) has a melting point of 129 to 131 °C.
`C#CCNC(=O)C(C#N)C(=O)C1CC1` (stereo unspecified) showed a melting point of 128 to 129 °C.
Work on `Cc1cc(Nc2cncc(-c3ccccc3)n2)n[nH]1` yielded a melting point of 232 to 234 °C.
Compound `COc1cc(/C=C2/C(=O)OC[C@H]2Cc2cc(OC)c(OCc3ccc([N+](=O)[O-])cc3)c(OCc3ccc([N+](=O)[O-])cc3)c2)cc(OC)c1OC` has a melting point of 171 to 172 °C.
With `O=C1CCCCC(CCc2nc3cc(Br)cnc3[nH]2)N1` (stereo unspecified) the melting point was 245 °C.
In the case of `Cc1cc(-c2ccc(Cl)c(Cl)c2)nc(-c2ccnc(-c3cccc(S(N)(=O)=O)c3)c2)n1`, the melting point was 202 °C.
Work on `CCOC(=O)C1C(=O)NC(=O)C(C#N)C12CCCCC2` (stereo unspecified) yielded a melting point of 167 to 170 °C.
`Cc1ccc2c(c1)c(-c1ccccc1)nn2CO` showed a melting point of 109 to 111 °C.
`Cc1cc(N)cc2c1NC(=O)CC2C` (stereo unspecified) showed a melting point of 207 to 210 °C.
With `N#Cc1ccc(N(Cc2ccc(OCc3ccccc3)cc2)n2cnnc2)cc1-c1ccco1` the melting point was 181 to 182 °C.
In the case of `CN(C)c1cccc(NC(=O)N(C[C@H]2CC[C@H](CN(C(=O)Nc3cccc(N(C)C)c3)C3CCCCCC3)CC2)C2CCCCCC2)c1`, the melting point was 151 to 156 °C.
For `CCOc1ccccc1-c1nc2c(C)nn(C)c2c(=O)[nH]1`, the melting point was 201 to 204 °C.
For `CC(C)CN(C)c1cc(F)cc(C(=O)Nc2ccc(OCCN3CCOCC3)c3ccccc23)c1`, the melting point was 126 to 128 °C.
With `N#Cc1c(N)nc2ccc([N+](=O)[O-])cc2c1O` the melting point was > 360 °C.
With `O=C(O)c1cc2c(-c3ccncc3)nccc2[nH]c1=O` the melting point was > 300 °C.
For `COc1cc(/C=C/C(=O)CC(=O)c2ccccc2)ccc1O`, the melting point was 159 to 162 °C.
In the case of `CCCCCCCCCCCCCCCCC[C@@H]1OC[C@@H](COC(=O)CCCCCOS(=O)(=O)c2ccc(C)cc2)O1` (relative stereo), the melting point was 41.9 to 42.7 °C.
`Cc1c(-c2ccc3sc(=O)n(C)c3c2)nc2ccccn12` gave a melting point of 206 to 208 °C.
Compound `COC(=O)NNC(=S)CC1CCCCO1` (stereo unspecified) has a melting point of 110 °C.
`COC(=O)c1ccc(OC)c2cc(OC)ccc12` showed a melting point of 102 to 104 °C.
Work on `O=C(NC(=O)c1c(F)cccc1Cl)Nc1ccc(Cl)cn1` yielded a melting point of 210 to 215 °C.
With `CCC(CC)NC(=O)Nc1cc(-c2c(-c3ccc(F)c(C)c3)nc3cccnn23)ccn1` the melting point was 187 to 188 °C.
In the case of `Cc1ccc(C#N)cc1Cl`, the melting point was 46.5 to 47.5 °C.
